Key:
aldosterone receptor = molecular target: T1, aldosterone receptor (Rattus norvegicus, UniProt P22199); assay: Kagawa model, urinary Na+/K+ ratio in adrenalectomised rats given aldosterone; type: in vivo; conditions: adrenalectomized rats, oral gavage, aldosterone 3 μg/animal s.c.
T1 construct: from tissue; host or cells: whole animal: adrenalectomised male Sprague-Dawley rats
T1 sequence (P22199 1-981): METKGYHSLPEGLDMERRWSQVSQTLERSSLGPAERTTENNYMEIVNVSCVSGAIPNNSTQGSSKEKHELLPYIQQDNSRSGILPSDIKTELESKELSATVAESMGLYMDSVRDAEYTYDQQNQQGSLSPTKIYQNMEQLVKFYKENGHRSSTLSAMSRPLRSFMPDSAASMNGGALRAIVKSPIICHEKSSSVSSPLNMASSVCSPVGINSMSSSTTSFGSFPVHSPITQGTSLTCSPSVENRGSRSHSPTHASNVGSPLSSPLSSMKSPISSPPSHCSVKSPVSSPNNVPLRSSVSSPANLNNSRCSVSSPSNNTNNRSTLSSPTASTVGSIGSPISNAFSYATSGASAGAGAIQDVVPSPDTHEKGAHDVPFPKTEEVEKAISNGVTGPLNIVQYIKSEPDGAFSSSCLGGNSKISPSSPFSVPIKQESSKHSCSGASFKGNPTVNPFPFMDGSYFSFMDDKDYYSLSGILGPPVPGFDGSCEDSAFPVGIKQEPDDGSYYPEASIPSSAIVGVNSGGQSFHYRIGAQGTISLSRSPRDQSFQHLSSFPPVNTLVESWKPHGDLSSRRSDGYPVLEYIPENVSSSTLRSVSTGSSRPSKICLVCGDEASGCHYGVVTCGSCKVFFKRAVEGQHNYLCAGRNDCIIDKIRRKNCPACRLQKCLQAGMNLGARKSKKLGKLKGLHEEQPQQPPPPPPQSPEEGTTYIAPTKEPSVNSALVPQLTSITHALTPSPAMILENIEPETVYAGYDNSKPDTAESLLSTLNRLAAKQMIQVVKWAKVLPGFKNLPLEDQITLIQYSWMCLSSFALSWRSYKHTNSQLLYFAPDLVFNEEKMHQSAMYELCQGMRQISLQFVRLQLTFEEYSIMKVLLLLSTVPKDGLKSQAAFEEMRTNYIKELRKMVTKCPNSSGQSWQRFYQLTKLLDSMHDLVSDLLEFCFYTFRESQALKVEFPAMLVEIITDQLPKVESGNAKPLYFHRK
From the text: To evaluate the in vivo activity of test compounds as aldosterone receptor antagonists, the Kagawa model was used, with some modifications. The original model first described by Kagawa (Endocrinology 1960; 67:125-131) has been widely utilised and reported in several published papers.
Bilateral adrenalectomised male Spague-Dawley rats aging approximately 5 weeks and weighing between 150 and 170 g at the time of surgery were obtained from Charles River (UK) Ltd., Margate, Kent. Following adrenalectomy, animals were maintained with standard diet and 0.9% (w/v) saline to drink. Saline replaces sodium ions lost due to the absence of the adrenal glands.
The animals were maintained for three days in standard condition and were trained in metabolic cages on one occasion prior to the test day for approximately 5 hours.
Food was withheld from animals overnight prior to dosing. Saline was available ad libitum.
Approximately 2 hours before dosing, saline was removed from the animals to ensure similar hydration levels. […]
The cumulative urine volume was measured and collected for analysis at 0-3 and 3-6 hours post-aldosterone. Urine was analysed for urinary sodium and potassium concentration. […]
Mean Na^+:K^+ ratios from each group were calculated. […]
The data were analysed using one-way Analysis of Variance (ANOVA). […]

[1] = molecular target: T2, GAL4 DBD-hMR LBD fusion protein (Homo sapiens, UniProt P08235); assay: Cell-based luciferase assay, agonist mode (CV-1 cells); conditions: 10 μM of compound
T2 construct: expressed in transfected cells; host or cells: CV-1 cells (African green monkey kidney), transient co-transfection with pCMX-GAL4-based vector and Galp3TKLuc reporter
From the text: GAL4 DBD-hMR LBD fusion protein expression vector: A pCMX-GAL4-based vector was used for the expression of a fusion protein composed of the amino acids 1-147 of the DNA binding domain of Saccharomyces cerevisiae GAL4 (GAL4 DBD) (SEQ ID NO: 16) and amino acid residues 729-984 of the ligand binding domain of human mineralocorticoid receptor (hMR LBD) (SEQ ID NO: 14). The expression vector contained an expression cassette of the nucleotide sequence for the GAL4 DBD (See SEQ ID NO: 19) ligated to nucleotides 2401 through 3168 of the human mineralocorticoid (hMR) receptor (SEQ ID NO: 13).
In vitro cell culture: CV-1 cells (African green monkey kidney cell line, ATCC accession number CCL-70) were maintained in culture in 90% DMEM medium supplemented by 9% FCS and 1% Penicillin-Streptomycin-L-Glutamine at 37° C. under 8.5% CO2.
These cells were transiently co-transfected with the GAL4 DBD-hMR LBD fusion protein expression vector and the Galp3TKLuc reporter gene vector using the FuGENE 6 Transfection Reagent (Roche) according to the manufacturer's instructions.
Agonist assay: As a positive control, aldosterone (Acros Organics, catalogue # 215360050) was used at a concentration of 100 nM. The negative control sample was 90% DMEM medium supplemented by 9% charcoal-treated FCS and 1% Penicillin-Streptomycin-L-Glutamine containing 0.2% DMSO plus 0.02% ethanol. Positive control, negative control, or 10 μM final concentration of test compound was added to the cells and incubated for 24 hours at 37° C. under 8.5% CO2 before the Luciferase substrate (Promega, catalogue number #E2620) was added. After an incubation period of 5 min at RT, luminescence signals were read on a microplate reader (Molecular Devices/LJL Biosystems). Negative and positive controls were defined as 0% and 100% agonism, respectively. The agonistic potency of test compounds is given in % and was normalized to the positive and negative controls.

T2 sequence (P08235 with tags, fused parts or gaps limits assumed): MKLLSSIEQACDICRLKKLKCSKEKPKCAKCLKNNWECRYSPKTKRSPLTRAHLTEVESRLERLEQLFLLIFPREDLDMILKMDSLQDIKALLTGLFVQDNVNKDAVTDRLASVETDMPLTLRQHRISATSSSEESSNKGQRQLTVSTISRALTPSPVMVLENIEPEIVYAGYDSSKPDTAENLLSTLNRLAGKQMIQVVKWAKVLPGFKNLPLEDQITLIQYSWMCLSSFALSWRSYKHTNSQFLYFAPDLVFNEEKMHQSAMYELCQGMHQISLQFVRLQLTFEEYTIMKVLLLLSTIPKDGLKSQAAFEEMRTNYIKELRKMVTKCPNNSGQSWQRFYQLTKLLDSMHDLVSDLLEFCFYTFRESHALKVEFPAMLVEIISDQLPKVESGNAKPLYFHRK

## CCS[C@@H]1CC2=CC(=O)CC[C@]2(C)C2=CC[C@@]3(C)C(CC[C@@]34CCC(=O)O4)C21 (some centres unmarked) [Example 13]
Aldosterone receptor
  urinary Na+/K+ ratio relative to animals only receiving aldosterone: statistically significant increase
[1]
  potency for activation of MR relative to aldosterone: at least three orders of magnitude less potent than aldosterone

— US20070066580A1, “Novel aldosterone antagonists and uses thereof” (Recordati Ireland Limited, priority 2005, published 2007)
